# Experimental data from ChEMBL document CHEMBL1287737, “Identification of potent and reversible cruzipain inhibitors for the treatment of Chagas disease” (Bioorg Med Chem Lett, 2010).
# The source made the active and inactive calls. No cut-off for these calls is given here.
# Columns and labels:
# Cathepsin B = Cathepsin B (Homo sapiens, UniProt P07858)
# Description: Inhibition of human Cat B in HepG2 cells
# Procathepsin L = Procathepsin L (Homo sapiens, UniProt P07711)
# Description: Inhibition of human Cat L
# Cruzipain = Cruzipain (Trypanosoma cruzi, UniProt P25779)
# Description: Inhibition of Trypanosoma cruzi Cruzipain
# [1] = Half life in mouse; type: ADME, organism-based; conditions: in vivo
# [2] = Half life in rat; type: ADME, organism-based; conditions: in vivo
# [3] = Oral bioavailability in rat; type: ADME, organism-based; conditions: in vivo
# Cathepsin L2 = target: T1, Cathepsin L2 (Homo sapiens, UniProt O60911); experiment: Inhibition of human Cat V
# T1 sequence (O60911 whole entry): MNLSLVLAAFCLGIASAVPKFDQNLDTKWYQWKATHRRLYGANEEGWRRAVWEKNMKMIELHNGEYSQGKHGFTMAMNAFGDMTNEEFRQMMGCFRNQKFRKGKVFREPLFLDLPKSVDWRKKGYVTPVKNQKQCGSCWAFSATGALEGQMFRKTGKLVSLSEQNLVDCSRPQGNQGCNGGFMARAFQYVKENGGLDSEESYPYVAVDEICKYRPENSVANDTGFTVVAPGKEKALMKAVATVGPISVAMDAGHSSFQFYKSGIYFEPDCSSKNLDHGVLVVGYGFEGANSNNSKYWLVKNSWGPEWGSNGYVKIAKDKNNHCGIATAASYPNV
# Cathepsin S = Cathepsin S (Homo sapiens, UniProt P25774); experiment: Inhibition of human Cat S expressed in Ramos cells; type: cell-based
# Sequence of Cathepsin S (P25774 whole entry): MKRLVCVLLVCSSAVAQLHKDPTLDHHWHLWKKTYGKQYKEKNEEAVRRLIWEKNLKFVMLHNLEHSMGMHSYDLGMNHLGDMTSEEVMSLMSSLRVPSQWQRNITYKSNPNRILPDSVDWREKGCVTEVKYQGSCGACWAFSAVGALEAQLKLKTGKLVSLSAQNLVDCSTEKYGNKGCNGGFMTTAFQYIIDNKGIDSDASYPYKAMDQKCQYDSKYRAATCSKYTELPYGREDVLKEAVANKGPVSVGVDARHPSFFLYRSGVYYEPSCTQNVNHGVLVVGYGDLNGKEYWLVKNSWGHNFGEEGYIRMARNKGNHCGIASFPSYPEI
# [4] = Half life in dog; type: ADME, organism-based, Canis lupus familiaris; conditions: in vivo
# [5] = Oral bioavailability in dog; type: ADME, organism-based, Canis lupus familiaris; conditions: in vivo
# Cathepsin K = target: T2, Cathepsin K (Homo sapiens, UniProt P43235); experiment: Inhibition of human Cat K expressed in Ramos cells; type: cell-based
# T2 sequence (P43235 whole entry): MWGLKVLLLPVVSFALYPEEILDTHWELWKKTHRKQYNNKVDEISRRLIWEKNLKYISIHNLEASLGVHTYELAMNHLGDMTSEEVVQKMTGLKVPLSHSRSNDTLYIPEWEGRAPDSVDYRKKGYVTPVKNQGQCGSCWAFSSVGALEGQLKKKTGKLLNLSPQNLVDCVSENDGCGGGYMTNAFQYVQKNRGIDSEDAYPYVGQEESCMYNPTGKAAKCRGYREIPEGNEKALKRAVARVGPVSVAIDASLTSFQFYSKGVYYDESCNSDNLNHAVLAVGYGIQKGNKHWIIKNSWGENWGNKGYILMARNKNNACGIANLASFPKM
# Mus musculus = species: Mus musculus; experiment: Toxicity in Trypanosoma cruzi infected mouse; type: organism-based; conditions: in vivo
# Trypanosoma cruzi = experiment: Antimicrobial activity against Trypanosoma cruzi infected in mouse assessed as reduction in parasitemia; type: functional, organism-based
# Sequence of Procathepsin L (P07711 whole entry): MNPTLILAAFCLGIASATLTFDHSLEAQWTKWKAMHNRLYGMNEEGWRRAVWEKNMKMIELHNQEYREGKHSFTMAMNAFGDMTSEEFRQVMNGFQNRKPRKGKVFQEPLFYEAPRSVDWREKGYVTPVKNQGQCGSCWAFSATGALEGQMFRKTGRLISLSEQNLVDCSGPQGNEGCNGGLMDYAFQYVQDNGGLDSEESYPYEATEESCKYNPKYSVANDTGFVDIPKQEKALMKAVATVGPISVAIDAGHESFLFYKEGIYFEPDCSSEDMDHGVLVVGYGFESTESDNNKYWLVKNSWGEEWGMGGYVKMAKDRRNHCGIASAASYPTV
# Sequence of Cruzipain (P25779 whole entry): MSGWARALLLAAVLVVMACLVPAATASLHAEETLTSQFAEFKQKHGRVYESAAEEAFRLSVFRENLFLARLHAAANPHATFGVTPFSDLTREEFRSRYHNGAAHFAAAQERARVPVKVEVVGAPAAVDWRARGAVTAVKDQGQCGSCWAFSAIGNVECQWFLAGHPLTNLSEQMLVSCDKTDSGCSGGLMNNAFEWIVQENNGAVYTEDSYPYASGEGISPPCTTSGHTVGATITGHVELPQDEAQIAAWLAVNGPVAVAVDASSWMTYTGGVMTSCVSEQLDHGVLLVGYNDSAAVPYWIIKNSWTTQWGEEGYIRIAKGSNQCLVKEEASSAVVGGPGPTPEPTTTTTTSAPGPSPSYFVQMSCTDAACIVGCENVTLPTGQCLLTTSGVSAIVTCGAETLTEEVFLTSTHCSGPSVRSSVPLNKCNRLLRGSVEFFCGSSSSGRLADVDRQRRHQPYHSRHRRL
IC50 (Cathepsin B),IC50 (Procathepsin L),IC50 (Cruzipain),SMILES,further results
0.079 µM,0.219 µM,,CC(C)(F)C[C@H](N[C@@H](c1ccc(-c2ccc(S(C)(=O)=O)cc2)cc1)C(F)(F)F)C(=O)N[C@H](C#N)Cc1ccncc1,
0.064 µM,1.08 µM,,CC(C)(F)C[C@H](N[C@@H](c1ccc(-c2ccc(C3(C(=O)N4CCOCC4)CC3)cc2)cc1)C(F)(F)F)C(=O)N[C@H](C#N)Cc1ccccc1,
0.397 µM,> 10 µM,0.51 µM,CC(C)(F)C[C@H](N[C@@H](c1ccc(-c2ccc(S(C)(=O)=O)cc2)cc1)C(F)(F)F)C(=O)N[C@H](C#N)CCc1ccccc1,
0.009 µM,0.049 µM,,CC(C)(F)C[C@H](N[C@@H](c1ccc(-c2ccc(S(C)(=O)=O)cc2)cc1)C(F)(F)F)C(=O)N[C@H](C#N)Cc1ccc(C#N)cc1F,
0.122 µM,0.966 µM,,CC(C)(F)C[C@H](N[C@@H](c1ccc(-c2ccc(S(C)(=O)=O)cc2)cc1)C(F)(F)F)C(=O)N[C@H](C#N)Cc1ccccc1,half-life [1]: < 0.5 h
0.383 µM,0.042 µM,,CS(=O)(=O)c1ccc(-c2ccc([C@H](N[C@@H](CC(Cl)Cl)C(=O)N[C@H](C#N)Cc3ccccc3)C(F)(F)F)cc2)cc1,
0.26 µM,0.711 µM,,CC(C)(F)C[C@H](N[C@@H](c1ccc(-c2ccc(S(C)(=O)=O)cc2)cc1)C(F)(F)F)C(=O)N[C@@H](C#N)Cc1ccc(C#N)cc1F,
0.059 µM,0.379 µM,0.033 µM,CC(C)(F)C[C@H](N[C@@H](c1ccc(-c2cn[nH]c2)cc1)C(F)(F)F)C(=O)N[C@H](C#N)Cc1ccccc1,
0.577 µM,0.458 µM,0.007 µM,CS(=O)(=O)c1ccc(-c2ccc([C@H](N[C@@H](Cc3ccccc3)C(=O)N[C@H](C#N)Cc3ccccc3)C(F)(F)F)cc2)cc1,
0.087 µM,1.06 µM,,CC(C)[C@H](N[C@@H](c1ccc(-c2ccc([C@@H](O)C(F)F)cc2)cc1)C(F)(F)F)C(=O)N[C@H](C#N)Cc1ccc(C#N)cc1F,half-life [2]: 5.2 h; bioavailability [3]: 20%; IC50 (Cathepsin L2): 0.069 µM; IC50 (Cathepsin S): 0.322 µM; half-life [4]: 4.6 h; bioavailability [5]: 30%; IC50 (Cathepsin K): 0.002 µM
> 10 µM,> 10 µM,0.38 µM,CC(C)(C)[C@H](N[C@@H](c1ccc(-c2ccc(S(C)(=O)=O)cc2)cc1)C(F)(F)F)C(=O)N[C@H](C#N)Cc1ccccc1,
,,0.0018 µM,CC(C)C[C@H](N[C@@H](c1ccc(-c2ccc(N3CCNCC3)cc2)cc1)C(F)(F)F)C(=O)NCC#N,Activity (Mus musculus): Non-toxic; Activity (Trypanosoma cruzi): Active
0.143 µM,0.121 µM,,CC(C)[C@H](N[C@@H](c1ccc(-c2ccc(S(C)(=O)=O)cc2)cc1)C(F)(F)F)C(=O)N[C@H](C#N)Cc1ccc(C#N)cc1F,IC50 (Cathepsin L2): 0.028 µM; IC50 (Cathepsin S): 0.169 µM; IC50 (Cathepsin K): 0.0009 µM
,0.436 µM,,CC(C)(F)C[C@H](N[C@@H](c1ccc(-c2ccc(-c3ccncc3)cc2)cc1)C(F)(F)F)C(=O)N[C@H](C#N)Cc1ccccc1,
,2.63 µM,0.13 µM,CC(C)(F)C[C@H](N[C@@H](c1ccc(-c2ccc(S(C)(=O)=O)cc2)cc1)C(F)(F)F)C(=O)N[C@H](C#N)CC(F)(F)F,
0.433 µM,0.631 µM,,CC(C)[C@H](N[C@@H](c1ccc(-c2ccc(S(C)(=O)=O)cc2)cc1)C(F)(F)F)C(=O)N[C@H](C#N)Cc1ccccc1,
0.027 µM,0.426 µM,,CC(C)(F)C[C@H](N[C@@H](c1ccc(-c2ccc(C3(C(N)=O)CC3)cc2)cc1)C(F)(F)F)C(=O)N[C@H](C#N)Cc1ccccc1,
> 10 µM,> 10 µM,> 10 µM,CC(C)(F)C[C@H](N[C@@H](c1ccc(-c2ccc(S(C)(=O)=O)cc2)cc1)C(F)(F)F)C(=O)N[C@H](C#N)C1(c2ccccc2)CC1,
0.163 µM,0.117 µM,0.0002 µM,CC(C)C[C@H](N[C@@H](c1ccc(-c2ccc(S(C)(=O)=O)cc2)cc1)C(F)(F)F)C(=O)N[C@H](C#N)Cc1ccccc1,
0.048 µM,1.09 µM,,CC(C)(F)C[C@H](N[C@@H](c1ccc(-c2ccc([C@@H](O)C(F)F)cc2)cc1)C(F)(F)F)C(=O)N[C@H](C#N)Cc1ccccc1,
0.231 µM,5.25 µM,,CS(=O)(=O)c1ccc(-c2ccc([C@H](N[C@@H](CC3CC3)C(=O)N[C@H](C#N)Cc3ccccc3)C(F)(F)F)cc2)cc1,
0.068 µM,0.751 µM,0.007 µM,CS(=O)(=O)c1ccc(-c2ccc([C@H](N[C@H](C(=O)N[C@H](C#N)Cc3ccccc3)C3CC3)C(F)(F)F)cc2)cc1,
0.041 µM,0.098 µM,,CC(C)[C@H](N[C@@H](c1ccc(-c2ccc(C3(C(N)=O)CC3)cc2)cc1)C(F)(F)F)C(=O)N[C@H](C#N)Cc1ccc(C#N)cc1F,IC50 (Cathepsin L2): 0.079 µM; IC50 (Cathepsin S): 0.408 µM; IC50 (Cathepsin K): 0.003 µM
